Reference: patent publication US20070105873A1 (priority 2003, published 2007)

Assays:
Phytophthora infestans = format: in vivo; conditions: tomato cultivar Goldene Prinzessin, sprayed with 250 ppm a.i., infected next day, visual rating after 6 days; untreated 80
Alternaria solani = assay: Persistency against early blight on tomatoes caused by Alternaria solani, protective treatment; format: in vivo; conditions: tomato cultivar Goldene Prinzessin, sprayed with 16 ppm a.i., infected only after seven days, rating after a further 5 days; untreated 90
Experimental: The active compounds were prepared separately as a stock solution with 0.25% by weight of active compound in acetone or DMSO. 1% by weight of the emulsifier Uniperol® EL (wetting agent having emulsifying and dispersing action based on ethoxylated alkylphenols) was added to this solution. The stock solutions of the active compounds were diluted with water to the stated concentration.
2. Persistency Against Early Blight on Tomatoes Caused by Alternaria solani, Protective Treatment
Leaves of potted plants of the cultivar “Goldene Prinzessin” were sprayed to runoff point with an aqueous suspension having the concentration of active compound stated below.
To test for persistency, the leaves were infected with an aqueous spore suspension of Alternaria solani in a 2% strength biomalt solution having a density of 0.17×10^6 spores/ml only after seven days. The plants were then placed in a water-vapor-saturated chamber at 20-22° C. After a further 5 days, the disease on the untreated, but infected control plants had developed to such an extent that the infection could be determined visually in %.

SMILES | infection at 250 ppm of a.i. (% leaf area) (Phytophthora infestans) | infection at 16 ppm of a.i. (% leaf area) (Alternaria solani)
C[C@H](Nc1nc(C(N)=O)nc(Cl)c1-c1c(F)cc(F)cc1F)C(F)(F)F [I-5, 4-chloro-6-((S)-2,2,2-trifluoro-1-methylethylamino)-5-(2,4,6-trifluorophenyl)-pyrimidine-2-carboxamide] | 0 % leaf area | 30 % leaf area
CC(C)OC(=O)c1nc(Cl)c(-c2c(F)cc(F)cc2F)c(N[C@@H](C)C(F)(F)F)n1 [V-3, isopropyl 4-chloro-6-((S)-2,2,2-trifluoro-1-methylethylamino)-5-(2,4,6-trifluorophenyl)pyrimidine-2-carboxylate] | 5 % leaf area | 
